# From publication PMC12663243 (Scientific Reports, 2025)
# Where a name gives a salt, the structure may show the parent alone. Positions of bridges follow the written chain, without caps; N, C: chain ends. Non-standard residues stand in square brackets, D forms with d. Residues, ends and D or L forms follow the SMILES beside them. Hyp = O=C(O)[C@@H]1C[C@@H](O)CN1
# Legend:
# human SSTR4 [1] = target: T1, human SSTR4 (Homo sapiens, UniProt P31391); type: cell-based
# human SSTR1 = human SSTR1 (Homo sapiens, UniProt P30872); type: cell-based
# human SSTR4 [2] = target: T1, human SSTR4; experiment: cell-based
# SSTR4 = conditions: binding assays ref 48; cited from earlier work
# C57Bl/6j mice = conditions: mouse, in vivo, ip, 5 mg/kg
# T1 sequence (P31391 whole entry): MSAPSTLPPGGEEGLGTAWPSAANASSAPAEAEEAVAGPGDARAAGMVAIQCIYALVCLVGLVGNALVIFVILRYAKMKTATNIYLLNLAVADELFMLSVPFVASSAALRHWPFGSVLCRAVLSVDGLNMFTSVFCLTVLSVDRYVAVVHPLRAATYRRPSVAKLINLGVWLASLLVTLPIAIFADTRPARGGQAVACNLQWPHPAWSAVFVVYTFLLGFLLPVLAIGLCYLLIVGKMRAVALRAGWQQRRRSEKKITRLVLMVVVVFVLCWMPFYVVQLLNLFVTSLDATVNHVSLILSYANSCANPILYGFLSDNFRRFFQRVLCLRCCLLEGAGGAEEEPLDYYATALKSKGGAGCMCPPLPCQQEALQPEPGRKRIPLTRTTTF
# human SSTR1, sequence (P30872 whole entry): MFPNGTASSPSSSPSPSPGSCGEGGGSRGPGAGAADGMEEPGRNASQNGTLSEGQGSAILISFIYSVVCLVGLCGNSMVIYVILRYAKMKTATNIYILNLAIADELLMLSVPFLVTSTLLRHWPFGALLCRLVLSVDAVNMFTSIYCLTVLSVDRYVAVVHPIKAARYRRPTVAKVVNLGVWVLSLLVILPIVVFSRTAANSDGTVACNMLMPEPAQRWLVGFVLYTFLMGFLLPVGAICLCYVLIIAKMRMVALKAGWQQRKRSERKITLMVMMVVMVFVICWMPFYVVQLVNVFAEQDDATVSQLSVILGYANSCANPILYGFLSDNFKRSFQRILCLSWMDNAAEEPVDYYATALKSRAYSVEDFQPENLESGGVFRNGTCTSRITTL
smiles,measurement,setting,value
CC(C)C[C@H](NC(=O)[C@@H]1C[C@@H](O)CN1C(=O)[C@@H]1CSSC[C@H](NC(=O)[C@@H](NC(=O)[C@@H]2CCCN2)C(C)C)C(=O)N[C@@H](C)C(=O)N[C@@H](CCCCN)C(=O)N[C@@H](Cc2ccccc2)C(=O)NCC(=O)N1)C(=O)O [Fj1A1] (H-PVCAKFGC[Hyp]L-OH; disulfide 3-8; N-terminus assumed),decrease in potency at SSTR4,human SSTR4 [1],5000 fold
CC(C)C[C@H](NC(=O)[C@@H]1C[C@@H](O)CN1C(=O)[C@@H]1CSSC[C@H](NC(=O)[C@@H](NC(=O)[C@@H]2CCCN2)C(C)C)C(=O)N[C@H](Cc2c[nH]c3ccccc23)C(=O)N[C@@H](CCCCN)C(=O)N[C@@H](C)C(=O)NCC(=O)N1)C(=O)O [Fj1A3] (H-PVC[dW]KAGC[Hyp]L-OH; disulfide 3-8; N-terminus assumed),decrease in potency at SSTR4,human SSTR4 [1],630 fold
CC(C)C[C@H](NC(=O)[C@@H]1C[C@@H](O)CN1C(=O)[C@@H]1CSSC[C@H](NC(=O)[C@@H](NC(=O)[C@@H]2CCCN2)C(C)C)C(=O)N[C@H](Cc2c[nH]c3ccccc23)C(=O)N[C@@H](CCCCN)C(=O)N[C@@H](Cc2ccccc2)C(=O)N[C@@H](C)C(=O)N1)C(=O)O [Fj1A4] (H-PVC[dW]KFAC[Hyp]L-OH; disulfide 3-8; N-terminus assumed),increase in potency at SSTR4,human SSTR4 [1],6.2 fold
CC(C)C[C@H](NC(=O)[C@@H]1CCCN1C(=O)[C@@H]1CSSC[C@H](NC(=O)[C@@H](NC(=O)[C@@H]2CCCN2)C(C)C)C(=O)N[C@H](Cc2c[nH]c3ccccc23)C(=O)N[C@@H](CCCCN)C(=O)N[C@@H](Cc2ccccc2)C(=O)NCC(=O)N1)C(=O)O [Fj1A7] (H-PVC[dW]KFGCPL-OH; disulfide 3-8; N-terminus assumed),effect on SSTR1 potency,human SSTR1,increase in SSTR1 potency
same,effect on SSTR4 potency,human SSTR4 [1],virtually no effect
CC(C)C[C@H](NC(=O)[C@@H]1C[C@@H](O)CN1C(=O)[C@@H]1CSSC[C@H](NC(=O)[C@@H](NC(=O)[C@@H]2CCCN2)C(C)C)C(=O)N[C@H](Cc2c[nH]c3ccccc23)C(=O)N[C@@H](CCCCN)C(=O)N[C@H](Cc2ccccc2)C(=O)NCC(=O)N1)C(=O)O [Fj1A8] (H-PVC[dW]K[dF]GC[Hyp]L-OH; disulfide 3-8; N-terminus assumed),decrease in potency at SSTR4,human SSTR4 [1],42 fold
"NCCCC[C@@H]1NC(=O)[C@@H](Cc2c[nH]c3ccccc23)NC(=O)[C@@H](N)CSSC[C@@H](C(=O)O)NC(=O)CNC(=O)[C@H](Cc2ccccc2)NC1=O [Fj1A9, Cys3-D-Trp4-Lys5-Phe6-Gly7-Cys8] (H-C[dW]KFGC-OH; disulfide 1-6; N-terminus assumed)",decrease in potency at SSTR4,human SSTR4 [1],47 fold
CC(C)C[C@H](NC(=O)[C@@H]1C[C@@H](O)CN1C(=O)[C@@H]1CSSC[C@H](N)C(=O)N[C@H](Cc2c[nH]c3ccccc23)C(=O)N[C@@H](CCCCN)C(=O)N[C@@H](Cc2ccccc2)C(=O)NCC(=O)N1)C(=O)O [Fj1A10] (H-C[dW]KFGC[Hyp]L-OH; disulfide 1-6; N-terminus assumed),decrease in potency at SSTR4,human SSTR4 [1],13 fold
CC(C)[C@H](NC(=O)[C@@H]1CCCN1)C(=O)N[C@H]1CSSC[C@@H](C(=O)O)NC(=O)CNC(=O)[C@H](Cc2ccccc2)NC(=O)[C@H](CCCCN)NC(=O)[C@@H](Cc2c[nH]c3ccccc23)NC1=O [Fj1A11] (H-PVC[dW]KFGC-OH; disulfide 3-8; N-terminus assumed),effect on SSTR4 potency,human SSTR4 [1],virtually equipotent
CC(C)C[C@H](NC(=O)[C@@H]1C[C@@H](O)CN1C(=O)[C@@H]1CSSC[C@H](NC(=O)[C@H](Cc2ccccc2)NC(=O)[C@@H](N)CC(C)C)C(=O)N[C@H](Cc2c[nH]c3ccccc23)C(=O)N[C@@H](CCCCN)C(=O)N[C@@H](Cc2ccccc2)C(=O)NCC(=O)N1)C(=O)O [Fj1A13] (H-LFC[dW]KFGC[Hyp]L-OH; disulfide 3-8; N-terminus assumed),increase in potency at SSTR4,human SSTR4 [1],11 fold
CC(C)[C@H](NC(=O)[C@@H]1CCCN1)C(=O)N[C@H]1CSSC[C@@H](C(=O)N[C@@H](Cc2c[nH]c3ccccc23)C(=O)O)NC(=O)CNC(=O)[C@H](Cc2ccccc2)NC(=O)[C@H](CCCCN)NC(=O)[C@@H](Cc2c[nH]c3ccccc23)NC1=O [Fj1A14] (H-PVC[dW]KFGCW-OH; disulfide 3-8; N-terminus assumed),increase in potency at SSTR4,human SSTR4 [1],85 fold
CC(C)C[C@H](NC(=O)[C@@H]1C[C@@H](O)CN1C(=O)[C@@H]1CSSC[C@H](NC(=O)[C@@H](NC(=O)[C@@H]2CCCN2)C(C)C)C(=O)N[C@H](Cc2c[nH]c3ccccc23)C(=O)N[C@@H](CCCCN)C(=O)N[C@@H](Cc2ccccc2)C(=O)N[C@@H](CO)C(=O)N1)C(=O)O [Fj1A15] (H-PVC[dW]KFSC[Hyp]L-OH; disulfide 3-8; N-terminus assumed),increase in potency at SSTR4,human SSTR4 [1],14 fold
CC(C)C[C@H](NC(=O)[C@@H]1C[C@@H](O)CN1C(=O)[C@@H]1CSSC[C@H](NC(=O)[C@@H](NC(=O)[C@@H]2CCCN2)C(C)C)C(=O)N[C@H](Cc2c[nH]c3ccccc23)C(=O)N[C@@H](CCCCN)C(=O)N[C@@H](Cc2ccccc2)C(=O)N[C@@H]([C@@H](C)O)C(=O)N1)C(=O)O [Fj1A16] (H-PVC[dW]KFTC[Hyp]L-OH; disulfide 3-8; N-terminus assumed),effect on SSTR1 potency,human SSTR1,slight increase in SSTR1 activity
same,effect on SSTR4 potency,human SSTR4 [1],retained the SSTR4 potency of Fj1
CC(C)C[C@H](NC(=O)[C@@H]1C[C@@H](O)CN1C(=O)[C@@H]1CSSC[C@H](NC(=O)[C@@H](NC(=O)[C@@H]2CCCN2)C(C)C)C(=O)N[C@H](Cc2c[nH]c3ccccc23)C(=O)N[C@@H](CCCCN)C(=O)N[C@@H](Cc2ccccc2)C(=O)N[C@@H](CC(N)=O)C(=O)N1)C(=O)O [Fj1A17] (H-PVC[dW]KFNC[Hyp]L-OH; disulfide 3-8; N-terminus assumed),increase in potency at SSTR4,human SSTR4 [1],6.8 fold
CC(C)[C@H](NC(=O)[C@@H]1CCCN1)C(=O)N[C@H]1CSSC[C@@H](C(=O)N[C@@H](Cc2c[nH]c3ccccc23)C(=O)O)NC(=O)[C@H](CO)NC(=O)[C@H](Cc2ccccc2)NC(=O)[C@H](CCCCN)NC(=O)[C@@H](Cc2c[nH]c3ccccc23)NC1=O [Fj1A18] (H-PVC[dW]KFSCW-OH; disulfide 3-8; N-terminus assumed),effect on SSTR4 potency,human SSTR4 [1],well tolerated
CC(C)[C@H](NC(=O)[C@@H]1CCCN1)C(=O)N[C@H]1CSSC[C@@H](C(=O)N[C@@H](Cc2c[nH]c3ccccc23)C(=O)O)NC(=O)[C@H]([C@@H](C)O)NC(=O)[C@H](Cc2ccccc2)NC(=O)[C@H](CCCCN)NC(=O)[C@@H](Cc2c[nH]c3ccccc23)NC1=O [Fj1A19] (H-PVC[dW]KFTCW-OH; disulfide 3-8; N-terminus assumed),effect on SSTR4 potency,human SSTR4 [1],slight decrease in SSTR4 potency
CC(C)[C@H](NC(=O)[C@@H]1CCCN1)C(=O)N[C@H]1CSSC[C@@H](C(=O)N[C@@H](Cc2c[nH]c3ccccc23)C(=O)O)NC(=O)[C@H](CC(N)=O)NC(=O)[C@H](Cc2ccccc2)NC(=O)[C@H](CCCCN)NC(=O)[C@@H](Cc2c[nH]c3ccccc23)NC1=O [Fj1A20] (H-PVC[dW]KFNCW-OH; disulfide 3-8; N-terminus assumed),effect on SSTR4 potency,human SSTR4 [1],slight decrease in SSTR4 potency
CC(C)[C@H](NC(=O)[C@@H]1CSSC[C@H](NC(=O)[C@H](CC(N)=O)NC(=O)[C@@H](N)Cc2ccc(O)cc2)C(=O)N[C@@H](Cc2c[nH]cn2)C(=O)N[C@H](Cc2c[nH]c3ccccc23)C(=O)N[C@@H](CCCCN)C(=O)N[C@@H]([C@@H](C)O)C(=O)N1)C(=O)O [Fj2] (H-YNCH[dW]KTCV-OH; disulfide 3-8; N-terminus assumed),EC50,human SSTR4 [2],2000 nM
Cc1ccc(S(=O)(=O)N[C@@H](CCN)C(=O)N[C@@H](Cc2ccccc2)C(N)=O)c2ccccc12 [J-2156],selectivity for SSTR4 over SSTR1,SSTR4,approximately 360 fold
same,selectivity for SSTR4 over SSTR5,SSTR4,~390 fold
"CN1CC[C@]23c4c5ccc(O)c4O[C@H]2[C@@H](O)C=C[C@H]3[C@H]1C5 [morphine, morphine sulfate]",duration of action,C57Bl/6j mice,shorter
same,peak efficacy,C57Bl/6j mice,higher peak efficacy than Fj1
